Laboratory results as given in patent US10738028B2, “Spiro three-membered ring, spiro five-membered ring peptide deformylase inhibitor and use thereof in antibacteria and anti-tumor” (priority 2016, dated 2020).

Tests used:
Assay type in all cases: cell-based
[1] = system: HCT-116 colorectal cancer cell line; assay: CCK-8 proliferation inhibition; details: Homo sapiens, HCT-116, 72 h, concentration of 30 μM; 72 hours; CCK-8; read-out: HCT116 inhibition rate/%
Summary of the method: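 2000 cells/well, McCoy's 5A + 10% newborn bovine serum; overnight attach, 37° C./5% CO2. Cpd from DMSO stock diluted in medium, 72 h. Readout: CCK-8 (1:10). Ctrl 1‰ DMSO.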

[2] = system: Moraxella catarrhalis (BCA); assay: MIC, two-fold agar dilution (CLSI), clinical isolates; details: for Anti-bacterial activity (MIC), strain BCA 14-1: clinical isolate BCA 14-1; for Anti-bacterial activity (MIC), strain BCA 14-4: clinical isolate BCA 14-4; for Anti-bacterial activity (MIC), strain BCA 14-5: clinical isolate BCA 14-5; for Anti-bacterial activity (MIC), strain BCA 14-6: clinical isolate BCA 14-6; for Anti-bacterial activity (MIC), strain BCA 14-7: clinical isolate BCA 14-7; for Anti-bacterial activity (MIC), strain BCA 14-8: clinical isolate BCA 14-8; for Anti-bacterial activity (MIC), strain BCA 14-10: clinical isolate BCA 14-10
Summary of the method: (§1)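 Susceptibility was tested using CLSI two-fold agar dilution against the strains examined.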

[3] = system: methicillin-sensitive Staphylococcus epidermidis (MSSE); assay: as above; details: for Anti-bacterial activity (MIC), strain MSSE 15-3: clinical isolate MSSE 15-3; for Anti-bacterial activity (MIC), strain MSSE 15-4: clinical isolate MSSE 15-4; for Anti-bacterial activity (MIC), strain MSSE 15-5: clinical isolate MSSE 15-5; for Anti-bacterial activity (MIC), strain MSSE 15-6: clinical isolate MSSE 15-6
Summary of the method: as §1

[4] = system: Enterococcus faecium (EFM); assay: as above; details: for Anti-bacterial activity (MIC), strain EFM 15-1: clinical isolate EFM 15-1; for Anti-bacterial activity (MIC), strain EFM 15-2: clinical isolate EFM 15-2; for Anti-bacterial activity (MIC), strain EFM 15-3: clinical isolate EFM 15-3; for Anti-bacterial activity (MIC), strain EFM 15-4: clinical isolate EFM 15-4; for Anti-bacterial activity (MIC), strain EFM 15-5: clinical isolate EFM 15-5; for Anti-bacterial activity (MIC), strain EFM 15-6: clinical isolate EFM 15-6
Summary of the method: as §1

[5] = system: methicillin-resistant Staphylococcus epidermidis (MRSE); assay: as above; details: for Anti-bacterial activity (MIC), strain MRSE 15-1: clinical isolate MRSE 15-1; for Anti-bacterial activity (MIC), strain MRSE 15-2: clinical isolate MRSE 15-2; for Anti-bacterial activity (MIC), strain MRSE 15-3: clinical isolate MRSE 15-3; for Anti-bacterial activity (MIC), strain MRSE 15-7: clinical isolate MRSE 15-7
Summary of the method: as §1

[6] = system: methicillin-resistant Staphylococcus aureus (MRSA); assay: as above; details: for Anti-bacterial activity (MIC), strain MRSA 15-1: clinical isolate MRSA 15-1; for Anti-bacterial activity (MIC), strain MRSA 15-2: clinical isolate MRSA 15-2; for Anti-bacterial activity (MIC), strain MRSA 15-3: clinical isolate MRSA 15-3; for Anti-bacterial activity (MIC), strain MRSA 15-4: clinical isolate MRSA 15-4
Summary of the method: as §1

[7] = system: Enterococcus faecalis (EFA); assay: as above; details: for Anti-bacterial activity (MIC), strain EFA 15-1: clinical isolate EFA 15-1; for Anti-bacterial activity (MIC), strain EFA 15-2: clinical isolate EFA 15-2; for Anti-bacterial activity (MIC), strain EFA 15-3: clinical isolate EFA 15-3; for Anti-bacterial activity (MIC), strain EFA 15-4: clinical isolate EFA 15-4; for Anti-bacterial activity (MIC), strain EFA 15-5: clinical isolate EFA 15-5; for Anti-bacterial activity (MIC), strain EFA 15-6: clinical isolate EFA 15-6; for Anti-bacterial activity (MIC), strain EFA 15-9: clinical isolate EFA 15-9
Summary of the method: as §1

[8] = system: Streptococcus pneoumoniae (SPN); assay: as above; details: for Anti-bacterial activity (MIC), strain SPN 16-2: clinical isolate SPN 16-2; for Anti-bacterial activity (MIC), strain SPN 16-4: clinical isolate SPN 16-4
Summary of the method: as §1

[9] = system: Escherichia coli (including ESBLs, non-ESBLs); assay: as above; details: for Anti-bacterial activity (MIC), strain ECO+ 15-1: clinical isolate ECO+ 15-1; for Anti-bacterial activity (MIC), strain ECO+ 15-2: clinical isolate ECO+ 15-2; for Anti-bacterial activity (MIC), strain ECO+ 15-3: clinical isolate ECO+ 15-3; for Anti-bacterial activity (MIC), strain ECO+ 15-4: clinical isolate ECO+ 15-4; for Anti-bacterial activity (MIC), strain ECO− 15-1: clinical isolate ECO− 15-1; for Anti-bacterial activity (MIC), strain ECO− 15-2: clinical isolate ECO− 15-2; for Anti-bacterial activity (MIC), strain ECO− 15-3: clinical isolate ECO− 15-3; for Anti-bacterial activity (MIC), strain ECO− 15-4: clinical isolate ECO− 15-4
Summary of the method: as §1

[10] = system: methicillin-sensitive Staphylococcus aureus (MSSA); assay: as above; details: for Anti-bacterial activity (MIC), strain MSSA 15-3: clinical isolate MSSA 15-3; for Anti-bacterial activity (MIC), strain MSSA 15-4: clinical isolate MSSA 15-4; for Anti-bacterial activity (MIC), strain MSSA 15-5: clinical isolate MSSA 15-5; for Anti-bacterial activity (MIC), strain MSSA 15-6: clinical isolate MSSA 15-6
Summary of the method: as §1

CCCC[C@H](CC(=O)NO)C(=O)N1CC2(CC2)C[C@H]1C(=O)Nc1ncco1 [Example 53, (S)-5-((R)-2-(2-(hydroxyamino)-2-oxoethyl)hexanoyl)-N-(oxazol-2-yl)-5-azaspiro[2.4]heptane-6-carboxamide]
inhibition at 30 µM [1]: -18%
Anti-bacterial activity (MIC), strain BCA 14-1 [2]: > 32 µg/mL
Anti-bacterial activity (MIC), strain BCA 14-4 [2]: > 32 µg/mL
Anti-bacterial activity (MIC), strain BCA 14-5 [2]: > 32 µg/mL
Anti-bacterial activity (MIC), strain BCA 14-6 [2]: > 32 µg/mL
Anti-bacterial activity (MIC), strain BCA 14-7 [2]: > 32 µg/mL
Anti-bacterial activity (MIC), strain BCA 14-8 [2]: > 32 µg/mL
Anti-bacterial activity (MIC), strain BCA 14-10 [2]: > 32 µg/mL
Anti-bacterial activity (MIC), strain MSSE 15-3 [3]: > 32 µg/mL
Anti-bacterial activity (MIC), strain MSSE 15-4 [3]: > 32 µg/mL
Anti-bacterial activity (MIC), strain MSSE 15-5 [3]: > 32 µg/mL
Anti-bacterial activity (MIC), strain MSSE 15-6 [3]: > 32 µg/mL
Anti-bacterial activity (MIC), strain EFM 15-1 [4]: > 32 µg/mL
Anti-bacterial activity (MIC), strain EFM 15-2 [4]: > 32 µg/mL
Anti-bacterial activity (MIC), strain EFM 15-3 [4]: > 32 µg/mL
Anti-bacterial activity (MIC), strain EFM 15-4 [4]: > 32 µg/mL
Anti-bacterial activity (MIC), strain EFM 15-5 [4]: 32 µg/mL
Anti-bacterial activity (MIC), strain EFM 15-6 [4]: 32 µg/mL
Anti-bacterial activity (MIC), strain MRSE 15-1 [5]: > 32 µg/mL
Anti-bacterial activity (MIC), strain MRSE 15-2 [5]: > 32 µg/mL
Anti-bacterial activity (MIC), strain MRSE 15-3 [5]: > 32 µg/mL
Anti-bacterial activity (MIC), strain MRSE 15-7 [5]: > 32 µg/mL
Anti-bacterial activity (MIC), strain MRSA 15-1 [6]: 16 µg/mL
Anti-bacterial activity (MIC), strain MRSA 15-2 [6]: > 32 µg/mL
Anti-bacterial activity (MIC), strain MRSA 15-3 [6]: 16 µg/mL
Anti-bacterial activity (MIC), strain MRSA 15-4 [6]: > 32 µg/mL
Anti-bacterial activity (MIC), strain EFA 15-1 [7]: > 32 µg/mL
Anti-bacterial activity (MIC), strain EFA 15-2 [7]: > 32 µg/mL
Anti-bacterial activity (MIC), strain EFA 15-3 [7]: > 32 µg/mL
Anti-bacterial activity (MIC), strain EFA 15-4 [7]: > 32 µg/mL
Anti-bacterial activity (MIC), strain EFA 15-5 [7]: > 32 µg/mL
Anti-bacterial activity (MIC), strain EFA 15-6 [7]: > 32 µg/mL
Anti-bacterial activity (MIC), strain EFA 15-9 [7]: > 32 µg/mL
Anti-bacterial activity (MIC), strain SPN 16-2 [8]: 32 µg/mL
Anti-bacterial activity (MIC), strain SPN 16-4 [8]: 32 µg/mL
Anti-bacterial activity (MIC), strain ECO+ 15-1 [9]: > 32 µg/mL
Anti-bacterial activity (MIC), strain ECO+ 15-2 [9]: > 32 µg/mL
Anti-bacterial activity (MIC), strain ECO+ 15-3 [9]: > 32 µg/mL
Anti-bacterial activity (MIC), strain ECO+ 15-4 [9]: > 32 µg/mL
Anti-bacterial activity (MIC), strain ECO− 15-1 [9]: > 32 µg/mL
Anti-bacterial activity (MIC), strain ECO− 15-2 [9]: > 32 µg/mL
Anti-bacterial activity (MIC), strain ECO− 15-3 [9]: > 32 µg/mL
Anti-bacterial activity (MIC), strain ECO− 15-4 [9]: > 32 µg/mL
Anti-bacterial activity (MIC), strain MSSA 15-3 [10]: > 32 µg/mL
Anti-bacterial activity (MIC), strain MSSA 15-4 [10]: > 32 µg/mL
Anti-bacterial activity (MIC), strain MSSA 15-5 [10]: > 32 µg/mL
Anti-bacterial activity (MIC), strain MSSA 15-6 [10]: > 32 µg/mL

CCCC[C@H](CC(=O)NO)C(=O)N1CC2(CC2)C[C@H]1C(=O)Nc1ccno1 [Example 54, (S)-5-((R)-2-(2-(hydroxyamino)-2-oxoethyl)hexanoyl)-N-(isoxazol-5-yl)-5-spiro[2.4]heptane-6-carboxamide]
inhibition at 30 µM [1]: 8%
Anti-bacterial activity (MIC), strain BCA 14-1 [2]: > 32 µg/mL
Anti-bacterial activity (MIC), strain BCA 14-4 [2]: > 32 µg/mL
Anti-bacterial activity (MIC), strain BCA 14-5 [2]: 32 µg/mL
Anti-bacterial activity (MIC), strain BCA 14-6 [2]: > 32 µg/mL
Anti-bacterial activity (MIC), strain BCA 14-7 [2]: > 32 µg/mL
Anti-bacterial activity (MIC), strain BCA 14-8 [2]: > 32 µg/mL
Anti-bacterial activity (MIC), strain BCA 14-10 [2]: > 32 µg/mL
Anti-bacterial activity (MIC), strain MSSE 15-3 [3]: > 32 µg/mL
Anti-bacterial activity (MIC), strain MSSE 15-4 [3]: > 32 µg/mL
Anti-bacterial activity (MIC), strain MSSE 15-5 [3]: > 32 µg/mL
Anti-bacterial activity (MIC), strain MSSE 15-6 [3]: > 32 µg/mL
Anti-bacterial activity (MIC), strain EFM 15-1 [4]: > 32 µg/mL
Anti-bacterial activity (MIC), strain EFM 15-2 [4]: > 32 µg/mL
Anti-bacterial activity (MIC), strain EFM 15-3 [4]: > 32 µg/mL
Anti-bacterial activity (MIC), strain EFM 15-4 [4]: > 32 µg/mL
Anti-bacterial activity (MIC), strain EFM 15-5 [4]: 2 µg/mL
Anti-bacterial activity (MIC), strain EFM 15-6 [4]: 8 µg/mL
Anti-bacterial activity (MIC), strain MRSE 15-1 [5]: > 32 µg/mL
Anti-bacterial activity (MIC), strain MRSE 15-2 [5]: > 32 µg/mL
Anti-bacterial activity (MIC), strain MRSE 15-3 [5]: > 32 µg/mL
Anti-bacterial activity (MIC), strain MRSE 15-7 [5]: > 32 µg/mL
Anti-bacterial activity (MIC), strain MRSA 15-1 [6]: > 32 µg/mL
Anti-bacterial activity (MIC), strain MRSA 15-2 [6]: > 32 µg/mL
Anti-bacterial activity (MIC), strain MRSA 15-3 [6]: > 32 µg/mL
Anti-bacterial activity (MIC), strain MRSA 15-4 [6]: > 32 µg/mL
Anti-bacterial activity (MIC), strain EFA 15-1 [7]: > 32 µg/mL
Anti-bacterial activity (MIC), strain EFA 15-2 [7]: > 32 µg/mL
Anti-bacterial activity (MIC), strain EFA 15-3 [7]: > 32 µg/mL
Anti-bacterial activity (MIC), strain EFA 15-4 [7]: > 32 µg/mL
Anti-bacterial activity (MIC), strain EFA 15-5 [7]: > 32 µg/mL
Anti-bacterial activity (MIC), strain EFA 15-6 [7]: > 32 µg/mL
Anti-bacterial activity (MIC), strain EFA 15-9 [7]: 32 µg/mL
Anti-bacterial activity (MIC), strain SPN 16-2 [8]: 4 µg/mL
Anti-bacterial activity (MIC), strain SPN 16-4 [8]: 4 µg/mL
Anti-bacterial activity (MIC), strain ECO+ 15-1 [9]: > 32 µg/mL
Anti-bacterial activity (MIC), strain ECO+ 15-2 [9]: > 32 µg/mL
Anti-bacterial activity (MIC), strain ECO+ 15-3 [9]: > 32 µg/mL
Anti-bacterial activity (MIC), strain ECO+ 15-4 [9]: > 32 µg/mL
Anti-bacterial activity (MIC), strain ECO− 15-1 [9]: > 32 µg/mL
Anti-bacterial activity (MIC), strain ECO− 15-2 [9]: > 32 µg/mL
Anti-bacterial activity (MIC), strain ECO− 15-3 [9]: > 32 µg/mL
Anti-bacterial activity (MIC), strain ECO− 15-4 [9]: > 32 µg/mL
Anti-bacterial activity (MIC), strain MSSA 15-3 [10]: > 32 µg/mL
Anti-bacterial activity (MIC), strain MSSA 15-4 [10]: > 32 µg/mL
Anti-bacterial activity (MIC), strain MSSA 15-5 [10]: > 32 µg/mL
Anti-bacterial activity (MIC), strain MSSA 15-6 [10]: > 32 µg/mL
